Assay: xn = mol fraction of the nth substance listed
Settings: 101.3 kPa, Liquid; for viscosity: Capillary tube (Ostwald / Ubbelohde) method; for mass density: Pycnometric method; for thermal conductivity: Hot wire method

CC(O)CO (stereo unspecified) [1,2-propanediol] + O
Settings	mass density [kg/m3]	thermal conductivity [W/m/K]	viscosity [mPa·s]
296.65 K, x1 = 0.25	1040	–	7.39
296.8 K, x1 = 0.75	1038	–	32.4
297.05 K, x1 = 0.5	1042	–	17.5
298.5 K, x1 = 0.75	–	0.212	–
298.9 K, x1 = 0.5	–	0.243	–
299.6 K, x1 = 0.25	–	0.322	–
313.05 K, x1 = 0.25	1028	–	3.9
313.05 K, x1 = 0.5	1029	–	8.47
313.05 K, x1 = 0.75	1026	–	14.4
322.1 K, x1 = 0.25	–	0.337	–
323.7 K, x1 = 0.75	–	0.214	–
324.2 K, x1 = 0.5	–	0.25	–
333.1 K, x1 = 0.25	1013	–	2.12
333.1 K, x1 = 0.5	1013	–	4.14
333.1 K, x1 = 0.75	1010	–	6.46
347.2 K, x1 = 0.25	–	0.348	–
348.2 K, x1 = 0.75	–	0.215	–
349.1 K, x1 = 0.5	–	0.254	–
353.05 K, x1 = 0.25	996.5	–	1.32
353.05 K, x1 = 0.5	996.8	–	–
353.05 K, x1 = 0.75	993.8	–	3.45
353.1 K, x1 = 0.5	–	–	2.36
363.3 K, x1 = 0.25	988	–	1.09
363.35 K, x1 = 0.75	985.1	–	2.66
363.4 K, x1 = 0.5	987.9	–	1.84
372.1 K, x1 = 0.25	–	0.353	–
372.1 K, x1 = 0.5	–	0.255	–
372.8 K, x1 = 0.75	–	0.215	–
373.45 K, x1 = 0.25	979.3	–	0.915
378.35 K, x1 = 0.75	971.6	–	1.87
381.55 K, x1 = 0.25	971.3	–	–
383.5 K, x1 = 0.5	970.3	–	1.22
384.15 K, x1 = 0.25	–	–	0.778
388.5 K, x1 = 0.75	963.2	–	1.52
390.55 K, x1 = 0.25	963.4	–	–
394.55 K, x1 = 0.25	–	–	0.657
395.75 K, x1 = 0.5	958.1	–	–
396 K, x1 = 0.75	–	0.214	–
396.4 K, x1 = 0.25	–	0.353	–
397.1 K, x1 = 0.5	–	0.255	–
398.3 K, x1 = 0.75	954.2	–	1.27
398.75 K, x1 = 0.5	–	–	0.952
407.45 K, x1 = 0.5	947.1	–	–
407.75 K, x1 = 0.25	947.5	–	–
408.15 K, x1 = 0.75	944.7	–	1.08
411.45 K, x1 = 0.5	–	–	0.793
411.75 K, x1 = 0.25	–	–	0.525
411.75 K, x1 = 0.75	940.7	–	–
420.2 K, x1 = 0.5	–	0.253	–
420.4 K, x1 = 0.25	–	0.347	–
420.8 K, x1 = 0.75	–	0.212	–
424.55 K, x1 = 0.25	930.2	–	–
424.95 K, x1 = 0.5	929.6	–	–
428.15 K, x1 = 0.75	924.7	–	–
428.95 K, x1 = 0.5	–	–	0.618
429.55 K, x1 = 0.25	–	–	0.426
439.95 K, x1 = 0.5	914.7	–	–
440.4 K, x1 = 0.25	–	0.338	–
440.8 K, x1 = 0.5	–	0.249	–
441.45 K, x1 = 0.75	912.7	–	–
442 K, x1 = 0.75	–	0.21	–
443.95 K, x1 = 0.5	–	–	0.517
444.55 K, x1 = 0.25	908.3	–	–
449.55 K, x1 = 0.25	–	–	0.344

CC(O)COC(C)COC(C)CO (stereo unspecified) [2-[2-(2-hydroxypropoxy)propoxy]-1-propanol] + O
Settings	mass density [kg/m3]	thermal conductivity [W/m/K]	viscosity [mPa·s]
294.8 K, x1 = 0.5	1028	–	66.6
295.35 K, x1 = 0.75	1021	–	71.2
295.4 K, x1 = 0.25	1037	–	36.7
297.3 K, x1 = 0.25	–	0.215	–
297.7 K, x1 = 0.75	–	0.157	–
298.1 K, x1 = 0.5	–	0.174	–
313.05 K, x1 = 0.25	1023	–	14.2
313.05 K, x1 = 0.5	1013	–	22.4
313.05 K, x1 = 0.75	1007	–	24.6
324.3 K, x1 = 0.25	–	0.22	–
325.2 K, x1 = 0.75	–	0.156	–
325.8 K, x1 = 0.5	–	0.174	–
333.05 K, x1 = 0.25	1006	–	6.27
333.1 K, x1 = 0.5	996.8	–	9.12
333.1 K, x1 = 0.75	990.4	–	9.92
349.1 K, x1 = 0.75	–	0.156	–
349.7 K, x1 = 0.25	–	0.223	–
350.2 K, x1 = 0.5	–	0.175	–
353.05 K, x1 = 0.25	989	–	3.36
353.05 K, x1 = 0.5	979.9	–	4.5
353.1 K, x1 = 0.75	973.7	–	4.93
368.25 K, x1 = 0.25	975.3	–	2.3
368.25 K, x1 = 0.5	966.8	–	2.96
368.25 K, x1 = 0.75	960.5	–	3.21
374.1 K, x1 = 0.25	–	0.224	–
375.1 K, x1 = 0.5	–	0.172	–
375.5 K, x1 = 0.75	–	0.155	–
378.15 K, x1 = 0.25	966.7	–	1.84
378.5 K, x1 = 0.5	957.4	–	2.32
378.55 K, x1 = 0.75	951.3	–	2.53
388.4 K, x1 = 0.5	947.8	–	1.88
388.4 K, x1 = 0.75	942.4	–	2.03
393.05 K, x1 = 0.25	953	–	–
394.05 K, x1 = 0.5	944	–	–
394.55 K, x1 = 0.25	–	–	1.35
395.15 K, x1 = 0.5	–	–	1.67
398.35 K, x1 = 0.75	933.3	–	1.66
398.9 K, x1 = 0.25	–	0.222	–
399 K, x1 = 0.5	–	0.172	–
399.4 K, x1 = 0.75	–	0.152	–
408.3 K, x1 = 0.75	924.3	–	1.44
408.65 K, x1 = 0.5	930.6	–	–
409.05 K, x1 = 0.25	936.6	–	–
411.65 K, x1 = 0.5	–	–	1.26
412.05 K, x1 = 0.25	–	–	1.01
412.45 K, x1 = 0.75	–	–	1.31
414.15 K, x1 = 0.75	918.6	–	–
422.5 K, x1 = 0.75	–	0.15	–
423 K, x1 = 0.25	–	0.22	–
424.5 K, x1 = 0.5	–	0.168	–
426.65 K, x1 = 0.25	918.9	–	–
426.75 K, x1 = 0.5	913.2	–	–
428.25 K, x1 = 0.75	–	–	1.02
429.25 K, x1 = 0.75	904.7	–	–
429.65 K, x1 = 0.25	–	–	0.785
429.75 K, x1 = 0.5	–	–	0.952
445 K, x1 = 0.75	889.5	–	–
446.15 K, x1 = 0.25	897.8	–	–
446.55 K, x1 = 0.75	–	–	0.791
446.85 K, x1 = 0.5	892.5	–	–
448.2 K, x1 = 0.25	–	0.213	–
448.3 K, x1 = 0.5	–	0.164	–
449 K, x1 = 0.75	–	0.144	–
449.15 K, x1 = 0.25	–	–	0.615
449.85 K, x1 = 0.5	–	–	0.738
